Consider twelve molecules from PubChem BioAssay (NCI).

Among the test systems are HS 578T breast; BT-549 breast; T-47D breast; COLO 205 colon; A549 NSCLC; HL-60(TB) leukemia; MDA-MB-231 breast; OVCAR-4 ovarian; RXF 393 renal; CCRF-CEM leukemia.
Assay in all cases: NCI anticancer screen, dose series, 48 h

The structures appear in SMILES notation.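 In this assay, cells in 96-well plates receive the compound at five concentrations for 48 hours. Endpoints are linearly interpolated between the surrounding concentrations. Here, GI50 denotes the concentration required for 50% inhibition of growth. Definition used: TGI = concentration required for complete inhibition of growth.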

Regarding `Cn1ccnc1CCc1ccc(F)cc1F`, the TGI with HS 578T breast, in the assay with BT-549 breast, in the assay on T-47D breast, in the assay with COLO 205 colon, with A549 NSCLC and in the assay with HL-60(TB) leukemia was more than 100 µM each time. For the same molecule, the TGI in the assay with MDA-MB-231 breast, with OVCAR-4 ovarian, with RXF 393 renal and with CCRF-CEM leukemia was more than 100 µM each time.
For `COc1c2occc2c(OC)c2c(=O)c(S(=O)(=O)NC(=O)Nc3ccc(Cl)cc3)coc12`, the TGI in the assay with HS 578T breast, with BT-549 breast, with T-47D breast, with COLO 205 colon, in the assay with A549 NSCLC and with HL-60(TB) leukemia was more than 10 µM each time. Moreover, the TGI in the assay with MDA-MB-231 breast, with OVCAR-4 ovarian, in the assay with RXF 393 renal and in the assay on CCRF-CEM leukemia was more than 10 µM throughout.
On to `O=C(NCC1Nc2ccncc2S(=O)(=O)N1)c1ccc(Br)cc1` (stereo not given), for which the TGI with HS 578T breast was 83.1 µM; in the assay on BT-549 breast it was more than 100 µM; with T-47D breast, more than 100 µM; in the assay with COLO 205 colon it was more than 100 µM; in the assay on A549 NSCLC, more than 100 µM; in the assay with HL-60(TB) leukemia, more than 100 µM. Moreover, the TGI in the assay on MDA-MB-231 breast, in the assay with OVCAR-4 ovarian and with RXF 393 renal was more than 100 µM each time.
With `COC(=O)c1c(OC(C)=O)ccc2c1c1c(OC(C)=O)c3ccccc3c(OC(C)=O)c1n2Cc1cc(OC)cc(OC)c1`, the TGI with HS 578T breast is more than 100 µM; with BT-549 breast, 82.1 µM; in the assay on T-47D breast it was 48.9 µM; in the assay with COLO 205 colon it was more than 100 µM; in the assay on A549 NSCLC, more than 100 µM; in the assay on HL-60(TB) leukemia it was more than 100 µM. Moreover, the TGI with MDA-MB-231 breast, in the assay on OVCAR-4 ovarian, in the assay on RXF 393 renal and in the assay on CCRF-CEM leukemia was more than 100 µM throughout.
For `O=C(CCc1cccc(O)c1)NCCc1cccc(O)c1`, the TGI in the assay with HS 578T breast, with BT-549 breast, with T-47D breast, in the assay with COLO 205 colon, in the assay on A549 NSCLC and in the assay on HL-60(TB) leukemia was more than 100 µM throughout. Also, the TGI with MDA-MB-231 breast, in the assay on OVCAR-4 ovarian, in the assay with RXF 393 renal and in the assay with CCRF-CEM leukemia was more than 100 µM in each case.
In the case of `Brc1ccc2c(-c3nc(-c4c[nH]c5ccccc45)cs3)c[nH]c2c1`, the TGI with HS 578T breast is more than 100 µM; in the assay with BT-549 breast it was more than 96.8 µM; in the assay on T-47D breast, more than 100 µM; in the assay on COLO 205 colon it was more than 79.7 µM; in the assay with A549 NSCLC, 74.6 µM; with HL-60(TB) leukemia it was more than 100 µM. The TGI was more than 89.4 µM in the assay on MDA-MB-231 breast, more than 100 µM with OVCAR-4 ovarian, more than 68.7 µM with RXF 393 renal and more than 100 µM in the assay on CCRF-CEM leukemia.
Regarding `O=C1NN=C(c2ccc(Cl)cc2)CC1C1C(=O)N(c2ccccc2)N=C1c1ccccc1` (stereo not given), the TGI in the assay with HS 578T breast is 93.9 µM; in the assay with BT-549 breast, 54.4 µM; in the assay on T-47D breast it was more than 100 µM; with COLO 205 colon, more than 100 µM; in the assay on A549 NSCLC, more than 100 µM; with HL-60(TB) leukemia, more than 100 µM. Further, the TGI was more than 100 µM in the assay with MDA-MB-231 breast, 86.5 µM in the assay on OVCAR-4 ovarian, 70.9 µM in the assay with RXF 393 renal and 76.3 µM with CCRF-CEM leukemia.
Take `CC/C(Cl)=N\OC(=O)Nc1ccc(OC)cc1`: the TGI came out at 52 µM in the assay on HS 578T breast; 3.17 µM with BT-549 breast; 13.8 µM in the assay with T-47D breast; 3.92 µM with COLO 205 colon; 32.6 µM in the assay with A549 NSCLC; 4.36 µM with HL-60(TB) leukemia. For the same molecule, the TGI was found to be 17.3 µM in the assay with MDA-MB-231 breast, 30.3 µM in the assay on OVCAR-4 ovarian, 6.52 µM in the assay on RXF 393 renal and 4.97 µM in the assay on CCRF-CEM leukemia.
Turning to `COc1ccc(/C=N\N2CC(=O)N3C4C=CC(CC4)N3C2=O)cc1` (stereo not given), the TGI in the assay with HS 578T breast, in the assay with BT-549 breast, in the assay with T-47D breast, in the assay with COLO 205 colon, in the assay with A549 NSCLC and with HL-60(TB) leukemia was more than 100 µM throughout. Further, the TGI in the assay with MDA-MB-231 breast and in the assay with CCRF-CEM leukemia was more than 100 µM each time.
Turning to `Cc1c(-c2ccccc2)c(C#N)c2nnn(-c3ccccc3)c(=O)n12`, the TGI in the assay with HS 578T breast, in the assay with BT-549 breast, with T-47D breast, with COLO 205 colon, in the assay on A549 NSCLC and in the assay on HL-60(TB) leukemia was more than 100 µM each time. Also, the TGI in the assay on MDA-MB-231 breast, in the assay with OVCAR-4 ovarian, in the assay with RXF 393 renal and in the assay on CCRF-CEM leukemia was more than 100 µM each time.
`COC12C=C/C(=C(/C(=O)OCc3ccncn3)C(=O)CCCCCCCCC3(OC)C=C/C(=C(/C(=O)OCc4ccncn4)C(=O)CCCCCCCC1)O3)O2`: the GI50 is 0.402 µM with HS 578T breast; 0.225 µM with BT-549 breast; 0.28 µM with T-47D breast; 0.348 µM in the assay on COLO 205 colon; 0.363 µM in the assay on A549 NSCLC; 0.298 µM in the assay on HL-60(TB) leukemia. Besides, the figures for the GI50 in the assay with MDA-MB-231 breast, with OVCAR-4 ovarian and with CCRF-CEM leukemia were 0.335 µM, 0.317 µM and 0.251 µM, respectively. For the same molecule, the TGI stood at 5.11 µM with HS 578T breast; 0.78 µM with BT-549 breast; 25.7 µM in the assay with T-47D breast; 1.32 µM with COLO 205 colon; 1.49 µM with A549 NSCLC; 1.4 µM in the assay with HL-60(TB) leukemia. For the same molecule, the TGI was more than 100 µM in the assay with MDA-MB-231 breast, 2.16 µM in the assay on OVCAR-4 ovarian and 1.55 µM with CCRF-CEM leukemia.
For `O=C(O)Cc1ccc(Oc2nc3ccccc3nc2-c2cccs2)cc1`, the TGI in the assay with HS 578T breast was more than 100 µM; with BT-549 breast, more than 100 µM; with T-47D breast, 63.6 µM; with COLO 205 colon, 80.1 µM; in the assay with A549 NSCLC, more than 100 µM; in the assay on HL-60(TB) leukemia, more than 100 µM. Besides, the TGI in the assay on MDA-MB-231 breast is more than 100 µM; in the assay on OVCAR-4 ovarian, more than 100 µM; with RXF 393 renal it was 56.5 µM; in the assay with CCRF-CEM leukemia, more than 100 µM.
